The target of series [1] is T1, purified TK-2 (Homo sapiens, UniProt O00142).
T1 construct: gift: A. Karlsson, Karolinska Institute, Stockholm, Sweden
T1 sequence (O00142 34-265): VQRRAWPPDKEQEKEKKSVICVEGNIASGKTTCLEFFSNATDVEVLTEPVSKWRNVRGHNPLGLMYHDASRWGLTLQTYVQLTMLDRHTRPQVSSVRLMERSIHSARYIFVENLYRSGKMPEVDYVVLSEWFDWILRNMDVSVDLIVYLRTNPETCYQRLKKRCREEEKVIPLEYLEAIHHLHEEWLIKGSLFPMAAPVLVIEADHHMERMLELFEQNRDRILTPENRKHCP
The experiment in a line: FLT phosphorylation by purified TK-2. In kind it is biochemical. On the procedure:
(§1) 3′-deoxy-3′-[^18F]fluorothymidine was diluted with 50 mM Tris/1 mM EDTA (pH 7.4) and 1 : 1 mixed with 20 mM ATP, 10 mM MgCl2, resulting in an FLT concentration of about 60 MBq ml^−1 (6.32–18.89 pmol per sample). […] was inhibited by addition of dCTP or the specific TK-2 inhibitor KIN52 (final concentration 2 μM) ([Balzarini et al, 2003]).
(§2) The assay was optimised for protein concentration and incubation times. Diluted cell lysates or purified TK-2 (kindly provided by A. Karlsson, Karolinska Institute, Stockholm, Sweden) were incubated with the FLT mixture for 15 min at 37°C and the reaction was stopped by heating the samples at 95°C for 5 min. Substrate (FLT) and product (FLT-phosphate) were separated by TLC and radioactivity was measured in a single-well gamma counter (Wallac1480 Wizard, Perkin Elmer Lifescience, MA, USA). Protein concentrations were measured in a Bio-Rad Bradford protein assay (Bio-Rad Laboratories, Hercules, CA, USA). Thymidine kinase activity was calculated as the amount of FLT converted into FLT-phosphate per hour per million cells (nmol h^−1 10^−6 cells).

Series [2] has as its target T2, recombinant cytosolic TK-1 (Homo sapiens, UniProt P04183).
T2 sequence (P04183 1-234): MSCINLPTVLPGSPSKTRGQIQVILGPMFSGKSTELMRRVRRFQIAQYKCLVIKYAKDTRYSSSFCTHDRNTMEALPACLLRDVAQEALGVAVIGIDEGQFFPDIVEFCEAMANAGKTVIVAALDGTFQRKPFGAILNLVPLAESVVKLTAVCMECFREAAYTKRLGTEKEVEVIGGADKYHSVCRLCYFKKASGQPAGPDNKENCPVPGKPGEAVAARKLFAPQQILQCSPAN
The experiment in a line: Phosphorylation of [CH3-3H]dThd by recombinant TK-1. In kind it is biochemical. The method, then: A 50 μl reaction mixture, containing 50 mM Tris-HCl, pH 8.0, 2.5 mM MgCl2, 10 mM dithiothreitol, 2.5 mM ATP, 1.0 mg ml^−1 bovine serum albumin, 10 mM NaF, [CH3-^3H]dThd (0.1 μCi in 5 μl; 1 μM final concentration) and 5 μl of recombinant enzyme, was incubated at 37°C for 30 min in the presence or absence of different concentrations of dCTP or KIN52.

For series [3], the target named is T3, recombinant mitochondrial TK-2 (Homo sapiens, UniProt O00142).
T3 sequence (O00142 34-265): T1 sequence (O00142 34-265)
The experiment in a line: Phosphorylation of [CH3-3H]dThd by recombinant TK-2. The format is biochemical. The method, then: (§3) […] A 50 μl reaction mixture, containing 50 mM Tris-HCl, pH 8.0, 2.5 mM MgCl2, 10 mM dithiothreitol, 2.5 mM ATP, 1.0 mg ml^−1 bovine serum albumin, 10 mM NaF, [CH3-^3H]dThd (0.1 μCi in 5 μl; 1 μM final concentration) and 5 μl of recombinant enzyme, was incubated at 37°C for 30 min in the presence or absence of different concentrations of dCTP or KIN52. During this time, the enzyme reaction proceeded linearly. Formation of tritiated dTMP was measured by spotting aliquots of the reaction mixture on Whatman DE-81 filter paper disks, as described earlier ([Balzarini et al, 2003]).

The test system of series [4] is MDA MB231 cells. As to the kind of experiment: Separation of cellular FLT and FLT-phosphate by TLC. As to conditions: one hour after adding FLT. In kind it is cell-based, human. The text has this:
To discriminate between FLT and FLT-phosphate, cells in another identical plate were harvested and after stopping the enzyme reaction, cells were sonificated and spun down. 3′-deoxy-3′-[^18F]fluorothymidine and FLT-phosphate, present in the supernatant were separated as described above (section TK enzyme activity).

Series [5] deals with cellular TK activities (MDA MB231 cell lysates). As to the kind of experiment: Inhibition of cellular TK activity by TK-2 inhibitors added to cell lysates. In kind it is biochemical, human. To be noted: dCTP 10 μM added to cell lysates. On the procedure:
Cell pellets were suspended in 50 mM Tris/1 mM EDTA (pH 7.4) and sonificated on ice. Lysates were spun down and supernatant diluted 1 : 8 in 50 mM Tris/1 mM EDTA (pH 7.4).
as §1, §2

Substrate in series [6]: Cc1cn([C@H]2C[C@H](O)[C@@H](CO)O2)c(=O)[nH]c1=O
As to the kind of experiment: Phosphorylation of [CH3-3H]dThd by recombinant TK-2. The format is biochemical. To be noted: other: TK-2, Lineweaver–Burk; pH 8.0; 37.0 °C. On the procedure:
as §3

For the molecule `Cc1cn([C@H]2C[C@H]([18F])[C@@H](CO)O2)c(=O)[nH]c1=O` [FLT, 3′-deoxy-3′-[^18F]fluorothymidine], the “conversion of FLT into FLT-phosphate” value in series [1] (FLT added to purified TK-2) was 8%. Moreover, the inhibition constant Ki in series [2] (TK-1, competitive vs dThd, read-out: Ki FLT) came out at 1.9 µM. Also, in series [3] (TK-2), the Ki/Km came to 3.2. Further, in series [3] (TK-2, competitive vs dThd, read-out: Ki FLT), the Ki worked out at 4.2 µM. In addition, in series [4], the “cellular radioactivity as unphosphorylated FLT” value is recorded as “less than 20%” and the “cellular radioactivity counts due to FLT phosphate” value is “more than 80%”.
For `Nc1ccn([C@H]2C[C@H](O)[C@@H](COP(=O)(O)OP(=O)(O)OP(=O)(O)O)O2)c(=O)n1` [dCTP], the “inhibition of cellular TK activities” value in series [5] is 55–90%. The “inhibition of FLT phosphorylation by TK-2” value in series [1] (dCTP 10 mM) is recorded as 97%. For the same molecule, the IC50 in series [2] (TK-1, 1 μM [CH3-3H]dThd as substrate) is around 5 µM; in series [3] (TK-2, 1 μM [CH3-3H]dThd as substrate), around 50 µM.

B1: recombinant mitochondrial TK-2 (Homo sapiens) (protein)
chain: T1 sequence (O00142 34-265)
B1: the Km in series [6] was found to be 1.3 µM.

The record behind these values is paper PMC2527810, “[^18F]FDG and [^18F]FLT uptake in human breast cancer cells in relation to the effects of chemotherapy: an in vitro study” (British Journal of Cancer, 2008).
